In the NIST ThermoML archive (doi:10.1021/je200651r):
Numbers after ± are expanded uncertainties.

Experiment: not given
Settings: 343.15 K; Liquid; Manometric method

Going from ClCCCCl [1,3-dichloropropane] to CC[N+](=O)[O-] [nitroethane], the “vapor or sublimation pressure” value rises from 18.31 ± 0.19 kPa to 22.46 ± 0.23 kPa.

With C[N+](=O)[O-] [nitromethane] the “vapor or sublimation pressure” value was 34.93 ± 0.31 kPa.

Same assay, conditions: 353.15 K; Liquid; Manometric method

Going from ClCCCCl [1,3-dichloropropane] to CC[N+](=O)[O-] [nitroethane], the “vapor or sublimation pressure” value rises from 26.84 ± 0.22 kPa to 32.84 ± 0.29 kPa.

For C[N+](=O)[O-] [nitromethane], the “vapor or sublimation pressure” value was 50.14 ± 0.41 kPa.

Same assay, conditions: 363.15 K; Liquid; Manometric method

First: ClCCCCl [1,3-dichloropropane]
Second: CC[N+](=O)[O-] [nitroethane]
The “vapor or sublimation pressure” value of the first is lower: 38.65 ± 0.27 kPa for the first, 47.13 ± 0.37 kPa for the second.

For C[N+](=O)[O-] [nitromethane], the “vapor or sublimation pressure” value was 70.81 ± 0.53 kPa.

Experiment: refractive index (Na D-line) (dimensionless)
Settings: 298.15 K; 101.33 kPa; Liquid; Standard Abbe refractometry

First: ClCCCCl [1,3-dichloropropane]
Second: CC[N+](=O)[O-] [nitroethane]
The refractive index of the first is higher: 1.4462 ± 0.0008 for the first, 1.3898 ± 0.0009 for the second.

Work on C[N+](=O)[O-] [nitromethane] yielded a refractive index of 1.3794 ± 0.0009.
